Measurements as given in US12582631B2, “Methods of improving renal function” (Chinook Therapeutics, Inc., priority 2019, dated 2026).
“Also recorded” adds a separate entry of the source. Where two headings read alike, the source gives them in different places. Positions of bridges follow the written chain, without caps; N, C: chain ends. No end group written: not given here.

What was measured:
[1] = system: IL-6 production in primary human renal mesangial cells (HRMCs); experiment: ET-1 induced IL-6 production in HRMCs (ELISA); format: cell-based; conditions: for IC50: Homo sapiens, Mesangial cell, read-out: IC50, ET-1 stimulated IL-6 production
[2] = system: primary human renal mesangial cells (HRMCs); experiment: Proliferation (BrdU) of HRMCs stimulated with IgA-containing immune complexes from IgAN patients; format: cell-based; conditions: HRMCs treated with IgA containing serum fractions from healthy controls
[3] = system: gene expression in kidney tissue of g-ddY mice; experiment: RNA-seq differential gene expression in kidney tissue of g-ddY mice (edgeR); format: in vivo, mouse
Experimental: RNA isolation and sequencing libraries were generated using standard protocols. Sequencing was performed using an Illumina NextSeq500 using manufacturer's instructions with a read length of 75 bp and a read depth of 30 million. Raw data was assembled to FASTQ files. Following QC analysis, high quality sequencing reads (e.g., reads with a Phred quality score >36) were aligned to the mouse reference genome (GRCm38-mm10) using the default parameters of the align algorithm and transcript count tables of each library was generated using the default parameters of the featureCounts algorithm of the RSubread package (Liao […], Shi W, 2019). High quality sequencing reads mapped to 27,129 genes. Following additional QC of low count filtering (i.e. transcripts <10 counts across all samples), 16,207 genes were identified and used for further analysis. The remaining sequencing read counts of the included 16,207 genes were normalized to library size, log-transformed, and were quantified as counts per million (CPM). Select RNA-seq counts were validated using qPCR. Sequencing read counts (CPM) were used for identification of differential gene expression between specified populations using the quasi-likelihood methodology of the edgeR package. […] MA plots were generated using edgeR. Heatmaps and other plots were generated using the gplots and ggplot2 package.

ET-1 stimulated HRMC = experiment: Hallmark gene set enrichment in ET-1 stimulated HRMC treated with atrasentan; format: cell-based, human; conditions: atrasentan at 1 nM and 25 nM
[4] = system: hallmark gene sets in kidney tissue of g-ddY mice; experiment: Gene Set Enrichment Analysis (GSEA) of hallmark gene sets, g-ddY kidney RNA-seq; format: in vivo, mouse
g-ddY mice = experiment: UACR (albuminuria) in g-ddY mouse model of IgA nephropathy; format: in vivo; conditions: approximately 5 days
From the text: The grouped ddY (g-ddY) mouse is a spontaneous model of early-onset IgA nephropathy characterized by IgA immune complex deposition in the mesangium of the kidney, leading to significant proteinuria, glomerular hypercellularity, mesangioproliferative glomerular lesions, glomerular sclerosis and reduced kidney function, all hallmarks of human IgA nephropathy (J Am Soc Nephrol 23: 1364-1374, 2012). Consistent with human IgA nephropathy, the mesangial IgA deposits in the g-ddY mouse are also accompanied by deposition of IgG and complement C3.

[5] = system: canonical signaling pathways in kidney tissue of g-ddY mice; experiment: Ingenuity Pathway Analysis (IPA) of canonical pathways, g-ddY kidney RNA-seq; format: in vivo, mouse; conditions: 30 mg/kg/day

`CCCCN(CCCC)C(=O)CN1C[C@H](c2ccc3c(c2)OCO3)[C@@H](C(=O)O)[C@@H]1c1ccc(OC)cc1` [atrasentan, (2R,3R,4S)-4-(1,3-benzodioxol-5-yl)-1-[2-(dibutylamino)-2-oxoethyl]-2-(4-methoxyphenyl)pyrrolidine-3-carboxylic acid] was tested, and the IC50 ([1]; 48 h, 10 ng/mL ET-1, 48 hours) was roughly 1 nM, the IC50 ([1]; 72 h, 10 ng/mL ET-1, 72 hours) was roughly 1 nM and the basal cell proliferation [2] was “had no effect on basal cell proliferation”. For the same molecule, the “differentially expressed genes of the ET1 gene signature” value (“differentially expressed genes” below) ([3]; 10 mg/kg/day vs untreated control) was “Ccnd1, Ppara, Agt, Map2k2 and Hoxa9 were upregulated while Grk5, Mllt3, Klf2, Pparg, Hgf, Edn1, Fos, Ptgs2, and IL-1b were downregulated”, the “differentially expressed genes” value ([3]; 20 mg/kg/day vs untreated control) was “Ccdn1, Cat, Ppara, Map2k2, Hoxa9, Agt, and Egfr were upregulated while Nfatc1, Grk5, Klf2, Cav1, Pparg, Itga5, Myc, Ednra, Sell, Hgf, Mmp2, Edn1, Syk, Fos, and IL-1b were downregulated” and the “Ednra and Ednrb gene expression” value ([3]; 30 mg/kg/day) was “downregulated”. The “differentially expressed genes” value ([3]; 30 mg/kg/day vs untreated control) was “upregulated genes Ccnd1, Agt, Cat, Map2k2, Hoxa9, and Ppara and downregulated genes Ednrb, Myc, Mllt3, Hdac7, Ednra, Itga5, Grk5, Pparg, Klf2, Hgf, Mmp2, Sell, Sphk1, Fos, Syk, Edn1, and IL-1b”, the “ET1 (End1) gene expression” value ([3]; all three doses (10, 20, 30 mg/kg/day)) was “downregulated” and the “enrichment of hallmark gene sets” value (ET-1 stimulated HRMC) was “under-expression of hallmark gene sets”. The IL-6 signaling ([4]; 30 mg/kg/day) was “reduced IL-6 signaling”, the “cell proliferation associated signaling (mitotic spindle and G2M checkpoint)” value ([4]; 30 mg/kg/day) was “reduced cell proliferation associated signaling” and the inflammatory response signaling ([4]; 30 mg/kg/day) was “reduced inflammatory response signaling”. The “NES of hallmark signaling pathways (TNFα signaling via NF-κB, epithelial mesenchymal transition, inflammatory response, IL6-JAK-STAT3 signaling, mitotic spindle, G2M checkpoint)” value ([4]; 10, 20, and 30 mg/kg/day, adjusted p-value <0.05) was less than −1.5, the “reduction of UACR from baseline” value (g-ddY mice; 20 mg/kg/day in drinking water) was greater than 60% and the “albuminuria compared to baseline (paired t-test)” value (g-ddY mice; 20 mg/kg/day) was “reduced from baseline to a similar extent”. The “effect on UACR compared to control group (un-paired t-test)” value (g-ddY mice; 20 mg/kg/day) was “statistically significant compared to the control group; also recorded: significantly reduced albuminuria”, the “reduction of UACR from baseline” value (g-ddY mice; 30 mg/kg/day in drinking water) was greater than 60% and the “albuminuria compared to baseline (paired t-test)” value (g-ddY mice; 30 mg/kg/day) was “reduced albuminuria from baseline”. For the same molecule, the “effect on UACR compared to control group (un-paired t-test)” value (g-ddY mice; 30 mg/kg/day) was “statistically significant compared to the control group; also recorded: significantly reduced albuminuria”, the NF-κB signaling [5] was “reduced NF-κB signaling” and the PDGF signaling [5] was “reduced PDGF signaling”.

In the case of “ET-1: endothelin 1 (ET-1), used at 10 ng/mL to stimulate primary human mesangial cells (CSCSSLMDKECVYFCHLDIIW; disulfide 1-15, 3-11; ends not checked; UniProt P05305 53-73, looked up)”, the “increase in IL-6 production” value ([1]; HRMCs exposed to ET-1 over 48 hours) is reported as roughly 6 fold and the “increase in IL-6 production” value ([1]; HRMCs exposed to ET-1 over 72 hours) is reported as roughly 2.2 fold.
